Data on 13 compounds can be found in publication PMC2841507 (Journal of medicinal chemistry, 2010).

The structures appear in SMILES notation.

In one assay the target is human NET (Homo sapiens, UniProt P23975). The experiment in a line: cell-based. It is filed as cell-based.
In a further assay the target is human α3β4*-nAChR (Homo sapiens, UniProt P30926+P32297). The experiment in a line: 86Rb+ efflux assay, SH-SY5Y cells. Format: cell-based.
In the next assay the target is human DAT (Homo sapiens, UniProt Q01959). The experiment in a line: cell-based. It is filed as cell-based.
Another assay has as its target human α4β2-nAChR (Homo sapiens, UniProt P17787+P43681). The experiment in a line: 86Rb+ efflux assay, SH-EP1-hα4β2 cells. Format: cell-based.
Another assay addresses human α4β4-nAChR (Homo sapiens, UniProt P30926+P43681). The experiment in a line: 86Rb+ efflux assay, SH-EP1-hα4β4 cells. It is filed as cell-based.
The target in assay [1] is human muscle-type α1β1γδ- (α1*-) nAChR (Homo sapiens, UniProt P02708+P07510+P11230+Q07001). As to the kind of experiment: 86Rb+ efflux assay, TE671/RD cells. It is filed as cell-based.
Assay [2] deals with nicotine-induced antinociception (tail-flick). The experiment in a line: Blockade of nicotine-induced antinociception, tail-flick test. It is filed as in vivo, mice. Conditions: ratio of AD50 values, relative to 2a. On the technique in general: Hot-plate and tail-flick tests time the reaction to a heat stimulus.

What is called IC50 is the concentration that gives 50% inhibition. For `CC(C(=O)c1cccc(F)c1)N1CCCC1` (stereo not drawn) [Compound 2aa, 2-(N-Pyrrolidinyl)-3’-fluoropropiophenone], the half-inhibitory concentration (IC50) at human NET came out at 0.135 ± 0.036 µM; against human α3β4*-nAChR, 35 µM; against human DAT it was 0.156 ± 0.046 µM; against human α4β2-nAChR, 71 µM. The “fold more potent than 2a in inhibition of NE uptake” value at human NET amounted to 14 fold. On human DAT, the “fold more potent than 2a in inhibition of DA uptake” value came to 4 fold.
With `CC(C(=O)c1cccc(Br)c1)N1CCCC1` (stereo not drawn) [Compound 2bb, 2-(N-Pyrrolidinyl)-3’-bromopropiophenone], the half-inhibitory concentration (IC50) against human NET came to 1.18 ± 0.27 µM; against human α4β4-nAChR, 64 µM; in assay [1] it was 19 µM; against human α3β4*-nAChR, 11 µM; against human DAT, 0.75 ± 0.173 µM; at human α4β2-nAChR, 74 µM.
With `CC(NC(C)(C)C)C(=O)c1cccc(Br)c1` (stereo not drawn) [Compound 2c], the “times more potent than 2a in blocking nicotine-induced antinociception in the tail-flick test” value (“times more potent than 2a” below) in assay [2] is on record as ~ 10 fold.
As to `Cc1cccc(C(=O)C(C)N2CCCC2)c1` (stereo not drawn) [Compound 2cc, 2-(N-Pyrrolidinyl)-3’-methylpropiophenone], the concentration for half-maximal inhibition (IC50) came to 0.577 ± 0.061 µM at human NET; 53 µM in assay [1]; 11 µM on human α3β4*-nAChR; 0.414 ± 0.089 µM on human DAT; 56 µM against human α4β2-nAChR.
For the compound `Cc1cccc(C(=O)C(C)NC(C)(C)C)c1` (stereo not drawn) [Compound 2d], the “times more potent than 2a” value in assay [2] is 24 fold.
As to `COc1cccc(C(=O)C(C)N2CCCC2)c1` (stereo not drawn) [Compound 2dd, 2-(N-Pyrrolidinyl)-3’-methoxypropiophenone], the 50% inhibitory concentration (IC50) at human NET was 0.718 ± 0.13 µM; in assay [1] it was 87 µM; on human α3β4*-nAChR, 16 µM; against human DAT, 0.452 ± 0.082 µM; at human α4β2-nAChR, 57 µM.
In the case of `CC(C(=O)c1cccc([N+](=O)[O-])c1)N1CCCC1` (stereo not drawn) [Compound 2ee, 2-(N-Pyrrolidinyl)-3’-nitropropiophenone], the results for the IC50 against human NET, at human α3β4*-nAChR and against human DAT were 4.1 ± 0.54 µM, 53 µM and 10 ± 1.9 µM, respectively.
Regarding `CC(C(=O)c1cccc(Cl)c1)N1CCCCC1` (stereo not drawn) [Compound 2ff], the “times more potent than 2a” value in assay [2] is reported as 24 fold.
In the case of `CC(NC(C)(C)C)C(=O)c1ccc(Br)cc1` (stereo not drawn) [Compound 2h], in assay [2], the “times more potent than 2a” value is listed as ~ 10 fold.
On the same count and under the same terms, the value for `Cc1ccc(C(=O)C(C)NC(C)(C)C)cc1` (stereo not drawn) [Compound 2i] was ~ 10 fold; that for `CC(NC(C)(C)C)C(=O)c1ccc(F)c(F)c1` (stereo not drawn) [Compound 2j] was 24 fold.
Same read-out and setting: the figure for `CC(NC(C)(C)C)C(=O)c1cc(Cl)cc(Cl)c1` (stereo not drawn) [Compound 2n] is 43 fold; for `CCC(NC(C)(C)C)C(=O)c1ccc(Cl)c(Cl)c1` (stereo not drawn) [Compound 2w] it is 24 fold.
